Molecules are shown by their SMILES. Several values for one entry are separate records, joined by “and”; a condition that tells them apart may be missing. Equal values may be shown once.

This note sets out measurements from patent publication US20240165127A1, “CONTRAST AGENT FOR DIAGNOSIS OF VASCULAR DISEASE CONTAINING GADOLINIUM-BASED COMPOUND AS ACTIVE INGREDIENT AND SYNTHESIS METHOD THEREFOR” (DAEGU CATHOLIC UNIVERSITY INDUSTRY ACADEMIC COOPERATION …, priority 2022, published 2024).

For one data set, the system named is endothelial C166 cells. Nature of the data set: In vitro cell viability, CCK-8 assay. Format: cell-based. Particulars: 0.01 to 0.1 mM, 24 hours. How it is done:
The cytotoxicity of the Gd-DOTA click-SF probe was assessed against macrophage RAW264.7 cells and endothelial C166 cells using the CCK-8 assay according to the instructions provided by the manufacturer. RAW264.7 cells and endothelial C166 cells were cultured in DMEM containing 10% FBS and 1% penicillin-streptomycin (10000 U/ml). 2.5×10^4 RAW 264.7 cells and 3×10^3 C166 cells per well in 100 μL of DMEM well were seeded in 96-well plates. The cells were cultured at 37° C. for 24 hours in a humidified atmosphere containing 5% CO2, and then for comparison, each of the Gd-DOTA-click-SF probe and Dotarem was added thereto at concentrations of 0.01, 0.025, 0.05, 0.075, and 0.1 mM, followed by incubation at 37° C. for 24 hours. Thereafter, the cells were treated with 10 μl of CCK-8 solution and further cultured for 2 hours at 37° C., and the absorbance of each well was measured at 450 nm using a microplate reader.
(Formazan colour is commonly taken as a measure of viable cells.)

Data set [1] can be described thus: In vitro molar longitudinal relaxivity (r1), 3.0T MRI, inversion recovery method. Format: physicochemical. Conditions: 25° C., concentrations 0.01, 0.02, 0.04, 0.06, 0.08, and 0.1 mM. As to the method:
(§1) To obtain quantitative information on the efficacy of the Gd-DOTA-click-SF probe and Dotarem as MRI contrast agents, the molar longitudinal relaxivities (r1) thereof were analyzed. At 25° C., 3.0T MRI was performed using the inversion recovery method, and 9.4T MRI was performed using the RARE (Rapid Acquisition with Refocused Echoes) method.

Data set [2] is described as follows: Transmetallation kinetics: stability of Gd(III) complex in presence of Zn(II) ions, ICP/MS. Format: physicochemical. Conditions: 1 mM complex, 250 mM ZnCl2 in phosphate buffer, 0 to 48 hours. As to the method: In vivo, the transmetallation of the Gd complex occurs because Gd^3+ ions compete with other endogenous cations and endogenous anions that destabilize the gadolinium complex and shift the dissociation equilibrium toward its free components. For this reason, the in vitro stability of the Gd(III) complex should be investigated in the presence of Zn(II) ions. 8 μL of a solution of 250 mM ZnCl2 in phosphate buffer was added to 1.5 mL of 1 mM Gd-DOTA-click-SF complex and the mixture was stirred. Thereafter, the solution was collected at 0, 2, 4, 6, 8, 24, and 48 hours and filtered. […] To compare the stability of Gd-DOTA-click-SF with that the clinical contrast agent Dotarem, the same procedure was repeated three times.

Data set [3] in a line: In vitro molar longitudinal relaxivity (r1), 9.4T MRI, RARE method. Conditions: 25° C. In kind it is physicochemical. How it is done:
as §1

The subject of the next data set is elastase activity. Nature of the data set: Ex vivo T1-weighted MRI, CNR and ICP/MS gadolinium content of aortas from rats with induced abdominal aortic aneurysm (AAA) and from healthy rats. Details: species or system Sprague-Dawley (SD) rats. Particulars: for T1-signal intensity in T1-weighted MRI: immersed at 1.28 mM for 1 hour, washed 3 times with PBS. An excerpt: As experimental animals, 7-week-old Sprague-Dawley (SD) rats were used. The rats were maintained on a 12-hour light-dark cycle with free access to water and feed for one week of acclimatization. Then, the rats were randomly divided into a normal control group and an experimental group (aortic aneurysm group), and each group was further divided into a Dotarem-administered group and a Gd-DOTA-click-SF-administered group. Accordingly, the rats were divided into a total of 4 groups, each consisting of 4 animals.
To induce an abdominal aortic aneurysm, rats were anesthetized by inhalation with 2 to 2.5% isoflurane, and then their abdomen was incised to expose the aortic branches. Next, 300 μL of 12U porcine pancreatic elastase was perfused for 10 minutes.
After 5 weeks, the aorta with induced abdominal aortic aneurysm was harvested, immersed in Dotarem or the Gd-DOTA-click-SF of the present disclosure at 1.28 mM for 1 hour under shaking. Then, it was taken out and washed 3 times with PBS. Finally, the samples were placed in PCR tubes filled with PBS and were examined by T1-weighted MRI. The same procedure was also applied to the aorta from the healthy normal control group, which was immersed in Dotarem or the Gd-DOTA-click-SF of the present disclosure at 1.28 mM for 1 hour under shaking. Then, it was taken out and washed 3 times with PBS. Finally, the samples were placed in PCR tubes filled with PBS and were examined by T1-weighted MRI.
The CNRs of the MRI results for the four groups, identified in Example 7, were examined, and the concentrations of gadolinium were measured using ICP/MS (ICP/MS 7700, Agilent, USA).

`CNC[C@H](O)[C@@H](O)[C@H](O)[C@H](O)CO.O=C([O-])CN1CCN(CC(=O)[O-])CCN(CC(=O)O)CCN(CC(=O)[O-])CC1.[Gd+3]` [Dotarem]: the “cell viability / cytotoxicity” value in the data set on endothelial C166 cells is reported as “non-cytotoxic”. Further, the “3.0T r1 (molar longitudinal relaxivity)” value in data set [1] was 2.105 mM^−1s^−1 and 2.211^a mM^−1s^−1. In data set [2], the “stability of Gd(III) complex (kinetic inertness, transmetallation)” value is “very stable in the presence of Zn(II) ions without transmetallation”. Moreover, the “9.4T r1 (molar longitudinal relaxivity)” value was 4.647 mM^−1s^−1 and 4.647^a mM^−1s^−1 in data set [3] (concentrations 0.01, 0.02, 0.04, 0.06, 0.08, and 0.1 mM); 5.064 mM^−1s^−1 and 5.064^b mM^−1s^−1 in data set [3] (concentrations 0.04, 0.08, 0.16, 0.32, and 0.64 mM). Further, the “T1-signal intensity in T1-weighted MRI” value with elastase activity (AAA aorta ex vivo) and in the data set with elastase activity (healthy normal aorta ex vivo) was “did not show high signal intensity” each time. Also, in the data set on elastase activity (ex vivo aortas, after washing with PBS), the “binding to the arterial wall” value is reported as “very low”.
